Values joined by “and” are separate entries in the source; they are usually repeats but may differ in a detail not shown here. Identical values can stand only once.
How the values were obtained:
[1] = system: sRANKL induced osteoclast differentiation; assay: In vitro anti-osteoclastogenesis activity determination (TRAP staining); format: cell-based, mouse; design: key to inhibition of osteoclastogenesis, dose-response (fig. S2a): % inhibition = 100 − (treated−unstimulated)/(untreated−unstimulated)×100; settings: for OC inhibitory ratio, sRANKL induced (fig. 3c IC50 curve data): replicates
In short: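 IC50 came from a nonlinear curve fit of percent inhibition, computed from TRAP-positive osteoclast counts against unstimulated and untreated wells. Cells were murine BMMs with M-CSF (10 ng/mL), exposed 5 days to 100 ng/mL sRANKL and nine compound levels, re-dosed every 2 days, in triplicate.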

sRANKL = biological target: T1, sRANKL (Rattus norvegicus, UniProt Q9ESE2, D175N); assay: Surface plasmon resonance (SPR) assay; format: binding; settings: immobilized sRANKL, 25 °C
T1 construct: (1) sRANKL (rat 159-318 aa); His6-sumo (N, cleaved yes); made in house; host or cells: Escherichia coli BL21 (DE3)
T1 sequence (Q9ESE2 159-318 D175N): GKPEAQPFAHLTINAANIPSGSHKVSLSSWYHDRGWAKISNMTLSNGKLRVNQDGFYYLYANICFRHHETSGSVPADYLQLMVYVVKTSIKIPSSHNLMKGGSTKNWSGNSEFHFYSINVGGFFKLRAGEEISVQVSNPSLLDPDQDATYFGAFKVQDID
Method: A ProteOn XPR36TM SPR instrument (BioRad Hercules, CA) was used for carrying out SPR assays. sRANKL protein in PBS buffer, pH 7.4, was diluted to 20 nM in 10 mM sodium acetate buffer, pH 5.5 and immobilized in parallelflow channels of a the EDAC/Sulfo-NHS activated surface of a GLH biosensor chip (Bio-Rad) with an amine coupling kit (Bio-Rad). The surface was blocked with 1 M ethanolamine. The final immobilization level for sRANKL was approximately 14,000 RU. A blank immobilization channel in the same GLH biosensor chip was also activated with EDAC/Sulfo-NHS and blocked with 1 M ethanolamine to use as a reference.
Biosensor binding experiments were conducted in filtered and degassed running buffer (PBS containing 0.005% Tween-20, pH 7.4) at 25 °C. Compounds was dissolved in 100% DMSO in appropriate different series concentrations of stock solutions. Before detecting, compounds were diluted in six or five concentrations with running buffer and ensured that the content of DMSO contained in each detected concentration was consistent. Compounds in different concentrations were injected simultaneously at a flow rate at […] for 180 s and 120 s for the association phase, followed by 180 s for the disassociation. Following the compound injection, the chip surface was regenerated with 40 s pulses of 0.85% H3PO4 and running buffer.
ProtedOn Manager 2.0. was used for data analysis. Each set of sensorgrams was globally analyzed using the 1:1 Langmuir binding model to obtain the kinetic rate constants (Kon and Koff). Global kinetic rate constants (ka and kd) were derived for each reaction, and the equilibrium dissociation constant, KD, was calculated using the equation KD = kd/ka.

[2] = Pharmacokinetic studies in rat; format: in vivo; design: plasma concentration-time (fig. S2c): unit not given here; settings: for Cmax / half-life: Sprague-Dawley; for Cmax / half-life / plasma concentration-time (fig. S2c): rat; for Cmax / half-life / AUC: male SD rats, oral 10 mg/kg, plasma
Method: 28-week-old and 280 g∼370 g weight male SD (Sprague Dawley) rats were used for pharmacokinetic (PK) studies. Rats were weighed and divided into groups of 3 rats per group. Compounds S3, S3-05 and S3-15 were dissolved in deionized water and made the concentration to 1 mg/mL. Then rats were oral gavage administrated at the doses of 10 mg/kg for each compound. Blood samples were collected in tubes with heparin sodium at 5 min, 10 min, 20 min, 30 min, 40 min, 60 min, 2 h, 3 h, 4 h, 5.5 h, 7 h, 9 h, 12 h, 16 h, 24 h, 32 h, 40 h, 48 h, time points, with three […] per time point for each compound. Blood samples were centrifuged 2100 × g for 10 min at 4 °C, then the plasma was transferred to a clean microfuge tube. Plasma samples were stored at −80 °C. Additionally, ten rats were used as a control and not treated with compound. Plasma from control mice was used to calibrate LC-MS and correct for matrix effects. Drug concentration in plasma was quantified by LC-MS-based methods. Pharmacokinetic parameters were estimated using Phoenix WinNonlin (version 6.3) (Certara USA, Princeton, New Jersey) from mean plasma concentration-time profiles.

[3] = system: RANKL-induced resorption pits; assay: Hydroxyapatite resorption assay; format: cell-based, mouse; settings: for bone resorption / RANKL-induced resorption pits: in words
Method: BMMs (1 × 10^5 cells/well) were cultured onto 6-well collagen-coated plates and stimulated with 100 ng/mL sRANKL and 10 ng/mL M-CSF for 3 days to generate early stage of osteoclasts began differentiation. Then early-stage osteoclasts were gently harvested using cell dissociation solution, and seeded into OsteoAssay Surface (hydroxyapatite-coated) 24-well plates. Early-stage osteoclasts were continue incubated in a medium containing sRANKL and M-CSF with or without treatment. After 48 h, wells were bleached to remove cells, followed by image acquisition for the measurement of resorbed areas using a Leica microscope. The percentage of surface resorbed was analyzed using ImageJ software.

Compound | Kd (sRANKL) | Cmax [2] | half-life [2] | AUC [2] | plasma concentration-time (fig. S2c) ([2]; time 0.083 h) | plasma concentration-time (fig. S2c) ([2]; time 0.167 h) | plasma concentration-time (fig. S2c) ([2]; time 0.333 h) | plasma concentration-time (fig. S2c) ([2]; time 0.5 h) | plasma concentration-time (fig. S2c) ([2]; time 0.667 h) | plasma concentration-time (fig. S2c) ([2]; time 1 h) | plasma concentration-time (fig. S2c) ([2]; time 2 h) | plasma concentration-time (fig. S2c) ([2]; time 3 h) | plasma concentration-time (fig. S2c) ([2]; time 4 h) | plasma concentration-time (fig. S2c) ([2]; time 5.5 h) | plasma concentration-time (fig. S2c) ([2]; time 7 h) | plasma concentration-time (fig. S2c) ([2]; time 9 h) | plasma concentration-time (fig. S2c) ([2]; time 12 h) | plasma concentration-time (fig. S2c) ([2]; time 16 h) | plasma concentration-time (fig. S2c) ([2]; time 24 h) | plasma concentration-time (fig. S2c) ([2]; time 48 h) | other results
CC(=O)/C(=N\Nc1ccccc1C(=O)O)C(=O)Nc1ccccn1 [S3-15] | 33.7 µM | 9520 ± 920 ng/mL | 15.5 h | 113.59± 17.41 hr*ug/m | 8.91 and 3.381 and 6.675 | 27.134 and 17.7488 and 10.2458 | 13.8156 and 22.2223 and 11.4529 | 17.5658 and 15.3508 and 13.9547 | 19.2235 and 12.2338 and 15.5001 | 10.8474 and 12.0395 and 10.786 | 16.2026 and 12.172 and 14.9878 | 10.9318 and 10.4453 and 9.091 | 11.3125 and 10.0653 and 13.8947 | 8.587 and 8.51 and 12.2576 | 16.4452 and 12.0395 and 11.7835 | 19.4794 and 12.2576 and 12.0395 | 5.907 and 4.021 and 6.547 | 1.447 and 2.372 and 1.915 | 0.5718 (2×) and 0.5604 | 0.1406 and 0.08379 and 0.1171 | OC inhibitory ratio, sRANKL induced (fig. 3c IC50 curve data) ([1]; 0.003 μM): 7.9602 and 6.219 and 4.726; OC inhibitory ratio, sRANKL induced (fig. 3c IC50 curve data) ([1]; 0.01 μM): -4.229 and 6.965 and 4.975; OC inhibitory ratio, sRANKL induced (fig. 3c IC50 curve data) ([1]; 0.03 μM): 19.1542 and 29.1045 and 33.5821; OC inhibitory ratio, sRANKL induced (fig. 3c IC50 curve data) ([1]; 0.1 μM): 31.8408 and 36.5672 and 39.0547; OC inhibitory ratio, sRANKL induced (fig. 3c IC50 curve data) ([1]; 0.3 μM): 40.2985 and 51.7413 and 33.8308; OC inhibitory ratio, sRANKL induced (fig. 3c IC50 curve data) ([1]; 1 μM): 50.7463 and 58.209 and 52.4876; OC inhibitory ratio, sRANKL induced (fig. 3c IC50 curve data) ([1]; 3.3 μM): 76.6169 and 75.8706 and 78.607; OC inhibitory ratio, sRANKL induced (fig. 3c IC50 curve data) ([1]; 10 μM): 91.791 and 91.0448 and 90.2985; OC inhibitory ratio, sRANKL induced (fig. 3c IC50 curve data) ([1]; 33 μM): 99.005 (2×) and 98.5075; oral availability ([2]; rat PK, in words): significant oral availability; plasma concentration-time (fig. S2c) ([2]; time 28 h): 0.2204 (2×) and 0.3334; plasma concentration-time (fig. S2c) ([2]; time 36 h): 0.2818 (2×) and 0.3414; resorption pits area quantification (fig. 6g) ([3]; S3-15 0.1 μM, vehicle 95, 90, 94): 80 and 85 and 76; resorption pits area quantification (fig. 6g) ([3]; S3-15 1 μM): 57 and 64 and 65; resorption pits area quantification (fig. 6g) ([3]; S3-15 10 μM): 34 and 29 and 27; bone resorption / RANKL-induced resorption pits [3]: attenuated bone resorption in a dose-dependent manner
CCOC(=O)c1sc(NC(=O)/C(=N/Nc2ccccc2C(=O)O)C(C)=O)nc1C [S3, (E)-2-(2-(1-((5-(ethoxycarbonyl)-4-methylthiazol-2-yl)amino)-1,3-dioxobutan-2-ylidene) hydrazinyl) benzoic acid] | 34.8 µM | 1430 ± 650 ng/mL | 7.51 h | 5.67± 3.48 hr*ug/m | 1.351 and 0.4444 and 0.2871 | 2.528 and 0.9092 and 0.8091 | 3.09 and 1.211 and 2.048 | 3.054 and 1.206 and 2.481 | 2.576 and 1.333 and 1.703 | 1.712 and 1.674 and 1.242 | 1.693 and 1.071 and 0.7425 | 1.218 and 0.6709 and 0.4108 | 1.2291 and 0.8619 and 0.3316 | 0.4965 and 0.6324 and 0.178 | 0.6171 and 0.2252 and 0.1625 | 0.8173 and 0.544 | 0.5875 and 0.2812 and 0.1945 | 1.063 and 0.3858 and 0.544 | 1.148 and 0.1582 and 0.2706 | 0.06761 and 0.02244 and 0.00409 | IC50 ([1]; Mus musculus, Osteoclast, 120 h, BMMs, M-CSF + 100 ng/mL sRANKL, 5 days, TRAP staining, read-out: OC IC50 (anti-osteoclastogenesis activity)): 0.096 µM; inhibition at 0.0843226 µM ([1]; Mus musculus, Osteoclast, conc. 0.0843226 μM, three replicate columns, read-out: inhibition of osteoclastogenesis, dose-response (fig. S2a)): 55.6%; inhibition at 0.278265 µM ([1]; Mus musculus, Osteoclast, conc. 0.278265 μM, three replicate columns, read-out: inhibition of osteoclastogenesis, dose-response (fig. S2a)): 62.8%; inhibition at 0.918274 µM ([1]; Mus musculus, Osteoclast, conc. 0.918274 μM, three replicate columns, read-out: inhibition of osteoclastogenesis, dose-response (fig. S2a)): 74.4%; inhibition at 3.0303 µM ([1]; Mus musculus, Osteoclast, conc. 3.0303 μM, three replicate columns, read-out: inhibition of osteoclastogenesis, dose-response (fig. S2a)): 82.5%; inhibition at 10 µM ([1]; Mus musculus, Osteoclast, conc. 10 μM, three replicate columns, read-out: inhibition of osteoclastogenesis, dose-response (fig. S2a)): 95.5%; inhibition at 33 µM ([1]; Mus musculus, Osteoclast, conc. 33 μM, three replicate columns, read-out: inhibition of osteoclastogenesis, dose-response (fig. S2a)): 100%; inhibition of osteoclastogenesis, dose-response (fig. S2a) ([1]; conc. 0.0023464 μM, three replicate columns): 14.7982 and 23.3184 and -0.4484; inhibition of osteoclastogenesis, dose-response (fig. S2a) ([1]; conc. 0.00774313 μM, three replicate columns): 4.4843 and 2.691 and 14.7982; inhibition of osteoclastogenesis, dose-response (fig. S2a) ([1]; conc. 0.0255523 μM, three replicate columns): 42.1525 and 52.4664 and 21.0762; inhibition of osteoclastogenesis, dose-response (fig. S2a) ([1]; conc. 0.0843226 μM, three replicate columns): 52.4664 and 43.4978; inhibition of osteoclastogenesis, dose-response (fig. S2a) ([1]; conc. 0.278265 μM, three replicate columns): 63.2287 and 72.1973; inhibition of osteoclastogenesis, dose-response (fig. S2a) ([1]; conc. 0.918274 μM, three replicate columns): 71.7489 and 80.2691; inhibition of osteoclastogenesis, dose-response (fig. S2a) ([1]; conc. 3.0303 μM, three replicate columns): 79.8206 and 91.0314; bone resorption / RANKL-induced resorption pits [3]: suppresses RANKL-induced resorption
